Experiments:
[1] = tested on: buccal tissue (EpiOral® tissues); assay: Permeability Enhancer Assay (Permeability Enhancer Test); conditions: pH 5.0; reference […]10^−6 cm/s
Excerpt: The donor side was not sampled and donor concentration was not measured.

[2] = tested on: buccal tissue (EpiOral® tissues); conditions: for Average Apparent Permeability Coefficient Papp: donor pH 9.0, receiver pH 7.4, co-dosed 100 μM (caffeine 50 μM), n=6
in vitro = conditions: human

Row | Structure (SMILES) | effect of the enhancer on the Papp of diphenhydramine versus reference Papp from the Permeability Test [1] | Average Apparent Permeability Coefficient Papp [2] | also measured
1 | CCCCCCCCCCCCCCCC[n+]1ccccc1 [Cetylpyridinium chloride] | higher | – | –
2 | CCCCCCCCCC(=O)[O-].[Na+] [Sodium Caprate] | higher | – | –
3 | Cn1c(=O)c2c(ncn2C)n(C)c1=O [Caffeine] | – | 33.3 ± 3.55 10^−6 cm/s | change of Papp at pH 9.0 compared to that at pH 5.0 and 7.4 ([2]; pH 9.0 vs pH 5.0 and 7.4): only moderately increased
4 | CC(C)NCC(O)COc1cccc2ccccc12 (stereo not drawn) [Propranolol] | – | 21.5 ± 4.66 10^−6 cm/s | Papp at 120 min, 100 μM (in vitro; pH 5): 1.45 ×10⁻⁶ cm/s; Papp at 120 min, 100 μM (in vitro; pH 7.4): 9.35 ×10⁻⁶ cm/s; Papp at 120 min, 100 μM (in vitro; pH 9): 21.5 ×10⁻⁶ cm/s
5 | CCCCCCCCCCCCOS(=O)(=O)[O-].[Na+] [SDS, sodium dodecyl sulfate] | lower | – | –

From patent US10624845B2 (The Procter & Gamble Company, priority 2015, dated 2020)
